From patent US20240317739A1, “NOVEL UREA DERIVATIVE COMPOUND AS RON INHIBITOR” (LG CHEM, LTD., priority 2021, published 2024)

Assays:
RON = RON (Homo sapiens, UniProt Q04912); assay: Evaluation of inhibitory activity against RON (TR-FRET); type: biochemical; settings: TR-FRET kinase assay, RON protein
Description: In order to measure the inhibitory activity of each of the compounds of Examples against RON, the IC50 of each of the compounds was measured using a Time-Resolved Fluorescence Energy Transfer Chemistry (TR-FRET).
(§1) Specifically, the compound was prepared to a concentration of 1 mM with 100% DMSO and was diluted 10 times in a stepwise manner through 3-fold dilution. 2 ul of the compound diluted in a stepwise manner was added to a 96-well-plate containing 48 ul of a 1×kinase reaction buffer (50 mM HEPES (pH 7.4), 0.01% Tween-20, 5 mM DTT, 0.5 mM Na3VO4, 2 mM EGTA, 10 mM MgCl2).
The RON protein was diluted to a concentration of 49.3 nM with an RON storage buffer (50 mM Tris-HCl (pH 7.5), 150 mM NaCl, 0.5 mM EDTA, 0.02% Triton X-100), and then diluted again to a concentration of 0.4 nM with a 1×kinase reaction buffer. As a substrate cocktail, a RON-specific substrate mixture (40 uM ULight-labeled Poly GT, 100 nM ATP) at a concentration 2 times the final reaction concentration.
(§2) Thereafter, a 384-well-plate was prepared, and 2.5 μl of each of the diluted compounds of Examples was added to a corresponding well of experimental group wells, and 2.5 μl of a 4% DMSO solution was dispensed into high control wells and low control wells.
(§3) Thereafter, 2.5 μL of 0.4 nM RON was dispensed into the high control wells and the experimental group wells, and 2.5 μL of a 1× kinase reaction buffer was added to the low control wells, and the RON and the reaction buffer were centrifuged at room temperature for 40 seconds at 1000 RPM, and then incubated at room temperature for 20 to 30 minutes. Then, 5 uL of a substrate cocktail (2×) was dispensed into all wells, centrifuged at room temperature for 40 seconds at 1000 RPM, and then incubated at room temperature for 60 minutes. Thereafter, 5 uL of 30 mM EDTA was added to all wells to terminate the reaction, and then incubated again at room temperature for 5 minutes. Thereafter, 5 uL of a 4× phosphotyrosine antibody (Perkin Elmer) containing europium was added to all wells, and then incubated at room temperature for 60 minutes. After the incubation, the 384-well-plate was read with a Vison plate reader. At this time, the excitation wavelength was 340 nm, and the emission wavelength was 620 nm and 665 nm. The IC50 value of the compound of each Example was derived using the GraphPd Prism7 program.

cMET = cMET (Homo sapiens, UniProt P08581); assay: Evaluation of inhibitory activity against MET (TR-FRET); type: biochemical; settings: TR-FRET kinase assay, cMET protein
Sequence of cMET (P08581 25-1390): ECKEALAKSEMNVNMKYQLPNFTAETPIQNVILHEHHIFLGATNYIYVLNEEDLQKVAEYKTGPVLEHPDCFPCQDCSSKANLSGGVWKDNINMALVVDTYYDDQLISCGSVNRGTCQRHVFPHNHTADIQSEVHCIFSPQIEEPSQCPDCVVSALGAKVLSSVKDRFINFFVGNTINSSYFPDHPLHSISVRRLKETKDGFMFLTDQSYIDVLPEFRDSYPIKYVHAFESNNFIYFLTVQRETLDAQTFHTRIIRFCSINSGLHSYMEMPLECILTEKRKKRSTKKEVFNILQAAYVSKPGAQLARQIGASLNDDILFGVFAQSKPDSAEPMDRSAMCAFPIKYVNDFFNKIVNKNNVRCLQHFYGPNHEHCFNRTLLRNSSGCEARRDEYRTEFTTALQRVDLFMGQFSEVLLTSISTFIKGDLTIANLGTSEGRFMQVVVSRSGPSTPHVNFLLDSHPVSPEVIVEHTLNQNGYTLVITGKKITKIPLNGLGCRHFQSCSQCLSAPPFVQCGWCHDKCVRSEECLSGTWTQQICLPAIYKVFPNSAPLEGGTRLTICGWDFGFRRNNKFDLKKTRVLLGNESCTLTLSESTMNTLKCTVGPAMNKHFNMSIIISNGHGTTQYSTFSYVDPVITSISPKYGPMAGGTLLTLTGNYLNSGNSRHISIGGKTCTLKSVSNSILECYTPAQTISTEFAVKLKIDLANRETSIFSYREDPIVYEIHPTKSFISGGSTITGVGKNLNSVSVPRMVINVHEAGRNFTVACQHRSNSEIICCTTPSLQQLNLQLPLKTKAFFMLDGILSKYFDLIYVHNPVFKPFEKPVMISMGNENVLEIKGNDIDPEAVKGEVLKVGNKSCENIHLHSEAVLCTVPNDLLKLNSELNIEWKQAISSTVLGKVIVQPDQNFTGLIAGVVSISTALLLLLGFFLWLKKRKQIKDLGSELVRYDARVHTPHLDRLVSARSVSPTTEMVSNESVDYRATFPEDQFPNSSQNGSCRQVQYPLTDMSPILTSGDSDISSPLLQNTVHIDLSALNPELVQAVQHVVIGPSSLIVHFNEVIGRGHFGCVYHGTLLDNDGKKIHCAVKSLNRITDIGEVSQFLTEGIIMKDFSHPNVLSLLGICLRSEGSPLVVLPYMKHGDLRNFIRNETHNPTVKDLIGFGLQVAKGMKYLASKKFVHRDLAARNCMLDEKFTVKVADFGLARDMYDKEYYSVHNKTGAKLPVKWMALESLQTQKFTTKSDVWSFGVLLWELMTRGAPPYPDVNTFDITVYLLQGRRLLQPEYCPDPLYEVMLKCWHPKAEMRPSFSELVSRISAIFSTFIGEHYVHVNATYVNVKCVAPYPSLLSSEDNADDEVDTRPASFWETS
Description: In addition, in order to measure the enzyme activity inhibition for cMET, the evaluation was performed in the same manner as the enzyme activity inhibition measurement experiment for the RON.
as §1, with “a 1× kinase” for “a 1×kinase”, “7.4), 0.05% BSA, 0.005%” for “7.4), 0.01%”, “Tween-20, 1” for “Tween-20, 5”, “mM MnCl2, 20” for “mM Na3VO4, 2 mM EGTA, 10”
The cMET protein was diluted to a concentration of 263 nM with a cMET storage buffer (50 mM Tris-HCl (pH 7.5), 150 mM NaCl, 0.05% Brij35, 1 mM DTT, 10% Glycerol), and then diluted again to a concentration of 2 nM with a 1× kinase reaction buffer. As a substrate cocktail, a MET-specific substrate mixture (5 uM TK peptide, […]) at a concentration 2 times the final reaction concentration.
as §2
as §3, with “of 2” for “of 0.4”, “nM cMET” for “nM RON”, “of 90” for “of 30”, “The […]” for “The IC50”

Sequence of RON (Q04912 25-1400, species assumed): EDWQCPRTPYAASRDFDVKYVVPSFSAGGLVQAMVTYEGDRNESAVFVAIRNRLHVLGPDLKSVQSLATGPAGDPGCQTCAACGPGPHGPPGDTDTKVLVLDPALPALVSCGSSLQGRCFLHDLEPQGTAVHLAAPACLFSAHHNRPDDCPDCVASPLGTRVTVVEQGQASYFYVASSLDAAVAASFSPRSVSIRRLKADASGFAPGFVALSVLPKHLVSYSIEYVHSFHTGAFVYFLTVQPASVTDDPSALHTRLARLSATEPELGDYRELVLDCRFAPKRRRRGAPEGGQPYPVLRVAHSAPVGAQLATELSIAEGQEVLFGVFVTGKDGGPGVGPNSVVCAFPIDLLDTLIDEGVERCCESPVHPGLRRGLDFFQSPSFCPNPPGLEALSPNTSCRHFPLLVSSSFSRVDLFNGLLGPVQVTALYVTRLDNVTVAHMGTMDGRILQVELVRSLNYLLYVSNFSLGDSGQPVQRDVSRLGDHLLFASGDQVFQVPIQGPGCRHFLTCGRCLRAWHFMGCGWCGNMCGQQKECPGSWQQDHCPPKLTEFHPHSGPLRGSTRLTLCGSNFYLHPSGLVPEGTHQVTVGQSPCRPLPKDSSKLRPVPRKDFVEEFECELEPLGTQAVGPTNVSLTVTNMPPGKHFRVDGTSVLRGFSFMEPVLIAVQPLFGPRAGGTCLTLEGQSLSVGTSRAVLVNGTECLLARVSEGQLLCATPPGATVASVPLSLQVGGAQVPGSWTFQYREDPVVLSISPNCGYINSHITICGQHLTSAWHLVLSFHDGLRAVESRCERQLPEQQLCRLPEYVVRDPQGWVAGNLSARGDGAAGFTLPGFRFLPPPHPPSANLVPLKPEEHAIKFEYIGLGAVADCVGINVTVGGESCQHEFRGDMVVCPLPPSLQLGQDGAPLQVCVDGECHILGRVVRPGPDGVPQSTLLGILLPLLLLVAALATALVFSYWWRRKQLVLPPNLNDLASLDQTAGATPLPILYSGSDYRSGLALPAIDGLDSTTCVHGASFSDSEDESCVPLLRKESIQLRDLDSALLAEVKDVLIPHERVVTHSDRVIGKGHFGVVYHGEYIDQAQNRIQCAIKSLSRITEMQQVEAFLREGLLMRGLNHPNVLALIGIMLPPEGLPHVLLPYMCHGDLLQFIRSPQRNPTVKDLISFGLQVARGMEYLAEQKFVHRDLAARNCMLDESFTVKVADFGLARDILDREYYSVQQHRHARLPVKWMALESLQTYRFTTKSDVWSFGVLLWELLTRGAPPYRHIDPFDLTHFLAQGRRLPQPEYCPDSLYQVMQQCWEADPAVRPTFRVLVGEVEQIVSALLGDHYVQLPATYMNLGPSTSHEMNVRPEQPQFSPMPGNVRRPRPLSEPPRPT

IC50 (RON) [µM] | IC50 (cMET) [µM] | Compound
< 0.05 | 0.5 to 5 | CC(C)n1c(=O)[nH]c2nccc(Oc3ccc(NC(=O)c4cnn(-c5ccncn5)c4C(F)(F)F)cc3F)c21 [Example 27, N-(3-fluoro-4-((1-isopropyl-2-oxo-2,3-dihydro-1H-imidazo[4,5-b]pyridine-7-yl)oxy)phenyl)-1-(pyrimidine-4-yl)-5-(trifluoromethyl)-1H-pyrazole-4-carboxamide]
> 5 | > 5 | CCc1c(C(=O)Nc2ccc(Oc3ccnc4[nH]c(=O)[nH]c34)c(F)c2)cnn1-c1cncnc1 [Example 1, 5-ethyl-N-(3-fluoro-4-((2-oxo-2,3-dihydro-1H-imidazo[4,5-b]pyridine-7-yl)oxy)phenyl)-1-(pyrimidine-5-yl)-1H-pyrazole-4-carboxamide]
< 0.05 | 0.5 to 5 | Cc1cccnc1-n1ncc(C(=O)Nc2ccc(Oc3ccnc4[nH]c(=O)n(C(C)C)c34)c(F)c2)c1C(F)(F)F [Example 8, N-(3-fluoro-4-((1-isopropyl-2-oxo-2,3-dihydro-1H-imidazo[4,5-b]pyridine-7-yl)oxy)phenyl)-1-(3-methylpyridine-2-yl)-5-(trifluoromethyl)-1H-pyrazole-4-carboxamide]
< 0.05 | 0.5 to 5 | COc1cccnc1-n1ncc(C(=O)Nc2ccc(Oc3ccnc4[nH]c(=O)n(C(C)C)c34)c(F)c2)c1C(F)(F)F [Example 28, N-(3-fluoro-4-((1-isopropyl-2-oxo-2,3-dihydro-1H-imidazo[4,5-b]pyridine-7-yl)oxy)phenyl)-1-(3-methoxypyridine-2-yl)-5-(trifluoromethyl)-1H-pyrazole-4-carboxamide]
0.05 to 0.5 | > 5 | COc1ccc(-n2ncc(C(=O)Nc3ccc(Oc4ccnc5[nH]c(=O)n(C(C)C)c45)c(F)c3)c2C(F)(F)F)nc1 [Example 34, N-(3-fluoro-4-((1-isopropyl-2-oxo-2,3-dihydro-1H-imidazo[4,5-b]pyridine-7-yl)oxy)phenyl)-1-(5-methoxypyridine-2-yl)-5-(trifluoromethyl)-1H-pyrazole-4-carboxamide]
< 0.05 | 0.5 to 5 | Cc1ccnc(-n2ncc(C(=O)Nc3ccc(Oc4ccnc5[nH]c(=O)n(C(C)C)c45)c(F)c3)c2C(F)(F)F)n1 [Example 26, N-(3-fluoro-4-((1-isopropyl-2-oxo-2,3-dihydro-1H-imidazo[4,5-b]pyridine-7-yl)oxy)phenyl)-1-(4-methylpyrimidine-2-yl)-5-(trifluoromethyl)-1H-pyrazole-4-carboxamide]
< 0.05 | > 5 | CC(C)n1c(=O)[nH]c2nccc(Oc3ccc(NC(=O)c4cnn(-c5ccccn5)c4C(F)(F)F)cc3F)c21 [Example 3, N-(3-fluoro-4-((1-isopropyl-2-oxo-2,3-dihydro-1H-imidazo[4,5-b]pyridine-7-yl)oxy)phenyl)-1-(pyridine-2-yl)-5-(trifluoromethyl)-1H-pyrazole-4-carboxamide]
< 0.05 | > 5 | CCc1c(C(=O)Nc2ccc(Oc3ccnc4[nH]c(=O)n(C(C)C)c34)c(F)c2)cnn1-c1cncnc1 [Example 2, 5-ethyl-N-(3-fluoro-4-((1-isopropyl-2-oxo-2,3-dihydro-1H-imidazo[4,5-b]pyridine-7-yl)oxy)phenyl)-1-(pyrimidine-5-yl)-1H-pyrazole-4-carboxamide]
< 0.05 | 0.5 to 5 | CC(C)n1c(=O)[nH]c2nccc(Oc3ccc(NC(=O)c4cnn(-c5cccnn5)c4C(F)(F)F)cc3F)c21 [Example 35, N-(3-fluoro-4-((1-isopropyl-2-oxo-2,3-dihydro-1H-imidazo[4,5-b]pyridine-7-yl)oxy)phenyl)-1-(pyridazine-3-yl)-5-(trifluoromethyl)-1H-pyrazole-4-carboxamide]
< 0.05 | > 5 | Cc1ccnc(-n2ncc(C(=O)Nc3ccc(Oc4ccnc5[nH]c(=O)n(C(C)C)c45)c(F)c3)c2C(F)(F)F)c1 [Example 14, N-(3-fluoro-4-((1-isopropyl-2-oxo-2,3-dihydro-1H-imidazo[4,5-b]pyridine-7-yl)oxy)phenyl)-1-(4-methylpyridine-2-yl)-5-(trifluoromethyl)-1H-pyrazole-4-carboxamide]
0.05 to 0.5 | 0.5 to 5 | Cc1c(C(=O)Nc2ccc(Oc3ccnc4[nH]c(=O)n(C(C)C)c34)c(F)c2)cnn1-c1cncnc1 [Example 5, N-(3-fluoro-4-((1-isopropyl-2-oxo-2,3-dihydro-1H-imidazo[4,5-b]pyridine-7-yl)oxy)phenyl)-5-methyl-1-(pyrimidine-5-yl)-1H-pyrazole-4-carboxamide]
< 0.05 | > 5 | CC(C)n1c(=O)[nH]c2nccc(Oc3ccc(NC(=O)c4cnn(-c5cc(F)ccn5)c4C(F)(F)F)cc3F)c21 [Example 38, N-(3-fluoro-4-((1-isopropyl-2-oxo-2,3-dihydro-1H-imidazo[4,5-b]pyridine-7-yl)oxy)phenyl)-1-(4-fluoropyridine-2-yl)-5-(trifluoromethyl)-1H-pyrazole-4-carboxamide]
0.05 to 0.5 | 0.5 to 5 | CCOc1cccnc1-n1ncc(C(=O)Nc2ccc(Oc3ccnc4[nH]c(=O)n(C(C)C)c34)c(F)c2)c1C(F)(F)F [Example 37, 1-(3-ethoxypyridine-2-yl)-N-(3-fluoro-4-((1-isopropyl-2-oxo-2,3-dihydro-1H-imidazo[4,5-b]pyridine-7-yl)oxy)phenyl)-5-(trifluoromethyl)-1H-pyrazole-4-carboxamide]
< 0.05 | 0.5 to 5 | COc1ccnc(-n2ncc(C(=O)Nc3ccc(Oc4ccnc5[nH]c(=O)n(C(C)C)c45)c(F)c3)c2C(F)(F)F)c1 [Example 33, N-(3-fluoro-4-((1-isopropyl-2-oxo-2,3-dihydro-1H-imidazo[4,5-b]pyridine-7-yl)oxy)phenyl)-1-(4-methoxypyridine-2-yl)-5-(trifluoromethyl)-1H-pyrazole-4-carboxamide]
< 0.05 | 0.5 to 5 | CC(C)n1c(=O)[nH]c2nccc(Oc3ccc(NC(=O)c4cnn(-c5ncccn5)c4C(F)(F)F)cc3F)c21 [Example 25, N-(3-fluoro-4-((1-isopropyl-2-oxo-2,3-dihydro-1H-imidazo[4,5-b]pyridine-7-yl)oxy)phenyl)-1-(pyrimidine-2-yl)-5-(trifluoromethyl)-1H-pyrazole-4-carboxamide]
< 0.05 | > 5 | CC(C)n1c(=O)[nH]c2nccc(Oc3ccc(NC(=O)c4cnn(-c5cc(Cl)ccn5)c4C(F)(F)F)cc3F)c21 [Example 15, 1-(4-chloropyridine-2-yl)-N-(3-fluoro-4-((1-isopropyl-2-oxo-2,3-dihydro-1H-imidazo[4,5-b]pyridine-7-yl)oxy)phenyl)-5-(trifluoromethyl)-1H-pyrazole-4-carboxamide]
< 0.05 | 0.5 to 5 | O=C(Nc1ccc(Oc2ccnc3[nH]c(=O)n(C4CCOC4)c23)c(F)c1)c1cnn(-c2ncccc2F)c1C(F)(F)F (stereo not shown) [Example 40, N-(3-fluoro-4-((2-oxo-1-(tetrahydrofuran-3-yl)-2,3-dihydro-1H-imidazo[4,5-b]pyridine-7-yl)oxy)phenyl)-1-(3-fluoropyridine-2-yl)-5-(trifluoromethyl)-1H-pyrazole-4-carboxamide]
